Patent US8912360B2, “Methods for preparing ritodrine hydrochloride” (Lundbeck Pharmaceuticals Italy S.p.A., priority 2010, dated 2014)

Test: Stability / hygroscopicity: water content through Karl Fischer titration after storage
Assay type: physicochemical
Settings: for hygroscopicity: hydrochloride
Protocol: The water content was determined through Karl Fischer (KF) titration.
Ritodrine hydrochloride Form I is kept at 40° C. and a relative humidity of 75% for 24 hours. The water content measured through Karl Fischer titration is 0.5% (weight/weight).
Ritodrine hydrochloride Form II is placed in a double polyethylene bag with a desiccant (silica gel) kept in standard conditions for storing active ingredients. After some months the water content of such Ritodrine hydrochloride measured through Karl Fischer titration is 2.2% (weight/weight).

| Structure (SMILES) | water absorption (exposed to a relative humidity of 75%) | hygroscopicity | water content measured through Karl Fischer titration (kept at 40° C. and a relative humidity of 75% for 24 hours) | water content measured through Karl Fischer titration (double polyethylene bag with a desiccant (silica gel), standard conditions for storing active ingredients, after some months) | water absorption (not exposed directly to a humid environment, normal controlled storing conditions) |
| --- | --- | --- | --- | --- | --- |
| C[C@@H](NCCc1ccc(O)cc1)[C@@H](O)c1ccc(O)cc1.Cl (racemic) [Ritodrine hydrochloride Form I, 4-((1RS,2SR)-1-hydroxy-2-{[2-(4-hydroxyphenyl)ethyl]amino}propyl)phenol hydrochloride] | does not absorb water | non-hygroscopic | 0.5 % (weight/weight) |  |  |
| C[C@@H](NCCc1ccc(O)cc1)[C@@H](O)c1ccc(O)cc1.Cl (racemic) [Ritodrine hydrochloride Form II, 4-((1RS,2SR)-1-hydroxy-2-{[2-(4-hydroxyphenyl)ethyl]amino}propyl)phenol hydrochloride] |  | hygroscopic |  | 2.2 % (weight/weight) | absorbs water |
